Assay results published in patent publication US11371055B2, “Herbicide resistance genes” (CORTEVA AGRISCIENCE LLC, priority 2005, dated 2022).

Legend:
[1] = target: T1, AAD-12 (v2) (Delftia acidovorans, UniProt P83309); experiment: Colorimetric phenol detection assay of AAD-12 activity; assay type: biochemical; settings: for activity of AAD-12 (v2) on substrate (absorbance at 510 nm, FIG. 3): 4.4 μg AAD-12 (v2), 0.5 mM substrate, 5 minutes
T1 construct: made in house; host or cells: Pseudomonas fluorescens strain MB324 (construct pDAB739)
T1 sequence (P83309 whole entry, looked up, natural form): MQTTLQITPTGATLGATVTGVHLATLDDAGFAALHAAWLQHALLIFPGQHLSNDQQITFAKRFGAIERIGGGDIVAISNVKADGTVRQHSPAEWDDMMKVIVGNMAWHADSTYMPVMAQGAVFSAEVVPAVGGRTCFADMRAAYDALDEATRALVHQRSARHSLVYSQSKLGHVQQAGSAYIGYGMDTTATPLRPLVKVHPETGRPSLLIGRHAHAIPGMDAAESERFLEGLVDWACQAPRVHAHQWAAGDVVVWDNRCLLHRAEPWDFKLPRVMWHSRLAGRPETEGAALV
Method: Enzyme activity was measured by colorimetric detection of the product phenol using a protocol modified from that of Fukumori and Hausinger (1993) (J. Biol. Chem. 268: 24311-24317) to enable deployment in a 96-well microplate format. The colorimetric assay has been described for use in measuring the activity of dioxygenases cleaving 2,4-D and dichlorprop to release the product 2,4-dichlorophenol. The color yield from several phenols was compared to that of 2,4-dichlorophenol using the detection method previously described to ascertain which phenol products could be readily detected. […] Pyridinols derived from fluroxypyr and triclopyr produced no significant color. The color yield of 2,4-dichlorophenol was linear and proportional to the concentration of phenol in the assay up to ˜500 μM.
Assays were initiated by addition of the aryloxyalkanoate substrate, enzyme or α-ketoglutarate at time zero. After 5 minutes of incubation at 25° C., the reaction was terminated by addition of 30 μl of a 1:1:1 mix of 50 mM Na EDTA; pH 10 buffer (3.09 g boric acid+3.73 g KCl+44 ml 1 N KOH) and 0.2% 4-aminoantipyrine. Then 10 μl 0.8% potassium ferricyanide was added and after 5 or 10 min, the absorbance at 510 nm was recorded in a spectrophotometric microplate reader. Blanks contained all reagents except for enzyme to account for the occasional slight contamination of some of the substrates by small amounts of phenols.
The results are shown in FIG. 3, which illustrates activity of AAD-12 (v2) on 2,4-D and enantiomers of dichlorprop. 4.4 μg AAD-12 (v2) was incubated with 0.5 mM substrate (1 mM for (R,S)-dichlorprop) and the reaction initiated by addition of α-ketoglutarate. After 5 minutes, the reaction was quenched, and the absorbance at 510 nm determined after addition of colorimetric detection reagents. The background value without enzyme was subtracted.

[2] = system: Homozygous AAD-1 (v3) gene T4 plants (Arabidopsis); experiment: T1 Arabidopsis postemergence herbicide dose response, AAD-1 comparison; assay type: in vivo, Arabidopsis thaliana
Text: T1 plants were then randomly assigned to various rates of 2,4-D. For Arabidopsis, 50 g ae/ha 2,4-D is an effective dose to distinguish sensitive plants from ones with meaningful levels of resistance. Elevated rates were also applied to determine relative levels of resistance (50, 200, 800, or 3200 g ac/ha). Tables 10 and 11 show comparisons drawn to an aryloxyalkanoate herbicide resistance gene (AAD-1 (v3)) previously described in PCT/US2005/014737.
All auxin herbicide applications were made using the DeVilbiss sprayer as described above to apply 703 L/ha spray volume (0.4 ml solution/3-inch pot) or applied by track sprayer in a 187 L/ha spray volume. 2,4-D used was either technical grade (Sigma, St. Louis, Mo.) dissolved in DMSO and diluted in water (<1% DMSO final concentration) or the commercial dimethylamine salt formulation (456 g ac/L, NuFarm, St Joseph, Mo.). Dichlorprop used was commercial grade formulated as potassium salt of R-dichlorprop (600 g ai/L, AH Marks). As herbicide rates increased beyond 800 g ae/ha, the pH of the spray solution became exceedingly acidic, burning the leaves of young, tender Arabidopsis plants and complicating evaluation of the primary effects of the herbicides. It became standard practice to apply these high rates of herbicides in 200 mM HEPES buffer, pH 7.5.
The first Arabidopsis transformations were conducted using AAD-12 (v1) (plant optimized gene). T1 transformants were first selected from the background of untransformed seed using a glufosinate selection scheme. Over 300,000 T1 seed were screened and 316 glufosinate resistant plants were identified (PAT gene), equating to a transformation/selection frequency of 0.10% which lies in the normal range of selection frequency of constructs where PAT+Liberty are used for selection. T1 plants selected above were subsequently transplanted to individual pots and sprayed with various rates of commercial aryloxyalkanoate herbicides. Table 11 compares the response of AAD-12 (v1) and control genes to impart 2,4-D resistance to Arabidopsis T1 transformants. Response is presented in terms of % visual injury 2 WAT. […] Since each T1 is an independent transformation event, one can expect significant variation of individual T1 responses within a given rate. An arithmetic mean and standard deviation is presented for each treatment. The range in individual response is also indicated in the last column for each rate and transformation. PAT/Cry1F-transformed Arabidopsis served as an auxin-sensitive transformed control. The AAD-12 (v1) gene imparted herbicide resistance to individual T1 Arabidopsis plants. Within a given treatment, the level of plant response varied greatly and can be attributed to the fact each plant represents an independent transformation event. Of important note, at each 2,4-D rate tested, there were individuals that were unaffected while some were severely affected. […] Injury levels tend to be greater and the frequency of uninjured plants was lower at elevated rates up to 3,200 g ae/ha (or 6× field rate). Also at these high rates, the spray solution becomes highly acidic unless buffered. Arabidopsis grown mostly in the growth chamber has a very thin cuticle and severe burning effects can complicate testing at these elevated rates. Nonetheless, many individuals have survived 3.200 g ac/ha 2,4-D with little or no injury.

[3] = system: AAD-12 (v1) event pDAB4101[20] T1 rice; experiment: Field tolerance of rice, AAD-12 event; assay type: in vivo, Oryza sativa; settings: for visual injury: 7 or 15DAT; for % Visual injury 7DAT / % Visual injury 15DAT: AAD-12 event pDAB4101[20]
Method: (§1) A field level tolerance trial was conducted with AAD-12 (v1) event pDAB4101[20] and one wild-type rice (Clearfield 131) at Wayside, Miss. (a non-transgenic imidazolinone-resistant variety). The experimental design was a randomized complete block design with a single replication. […] Within each herbicide treatment, two rows of T1 generation pDAB4101[20] and two rows of Clearfield rice were planted using a small plot drill with 8-inch row spacing. The pDAB4101[20] rice contained the AHAS gene as a selectable marker for the AAD-12(v1) gene. Imazethapyr was applied at the one leaf stage as selection agent to remove any AAD-12 (v1) null plants from the plots. Herbicide treatments were applied when the rice reached the 2 leaf stage using compressed air backpack sprayer delivering 187 L/ha carrier volume at 130-200 kpa pressure. […]

[4] = system: wild-type rice (Clearfield 131); experiment: Field tolerance of rice, wild-type; assay type: in vivo, Oryza sativa; settings: for % Visual injury 7DAT / % Visual injury 15DAT: Wild-type Clearfield
Method: as §1

[5] = 50 g ae/ha 2,4-D postemergence, 2 WAT
[6] = 200 g ae/ha 2,4-D postemergence, 2 WAT
[7] = 800 g ae/ha 2,4-D postemergence, 2 WAT
[8] = 3200 g ae/ha 2,4-D postemergence, 2 WAT
[9] = 50 g ae/ha R-dichlorprop postemergence
[10] = 200 g ae/ha R-dichlorprop postemergence
[11] = 800 g ae/ha R-dichlorprop postemergence
[12] = 3200 g ae/ha R-dichlorprop postemergence

Compound: O=C(O)COc1ccc(Cl)cc1Cl [2,4-D, 2,4-dichlorophenoxyacetic acid]
- activity of AAD-12 (v2) on substrate (absorbance at 510 nm, FIG. 3) [1]: equivalent to that on (S)-dichlorprop
- inhibition at 2000 µM ([1]; read-out: Substrate inhibition at 2 mM): 55%
- % Injury 20-40% (number of individuals) [2, 5]: 0
- % Injury <20% (number of individuals) [2, 5]: 10
- % Injury >40% (number of individuals) [2, 5]: 0
- % Injury Ave [2, 5]: 0%
- % Injury 20-40% (number of individuals) [2, 6]: 0
- % Injury <20% (number of individuals) [2, 6]: 10
- % Injury >40% (number of individuals) [2, 6]: 0
- % Injury Ave [2, 6]: 0%
- % Injury 20-40% (number of individuals) [2, 7]: 0
- % Injury <20% (number of individuals) [2, 7]: 10
- % Injury >40% (number of individuals) [2, 7]: 0
- % Injury Ave [2, 7]: 0%
- % Injury 20-40% (number of individuals) [2, 8]: 1
- % Injury <20% (number of individuals) [2, 8]: 9
- % Injury >40% (number of individuals) [2, 8]: 0
- % Injury Ave [2, 8]: 2%
- visual injury ([3]; 2,4-D at 2240 g ae/ha): no injury
- % Visual injury 7DAT ([3]; 2240 GM AE/HA): 0%
- % Visual injury 15DAT ([3]; 2240 GM AE/HA): 0%
- visual injury ([4]; 2,4-D at 2240 g ae/ha, 7DAT): 30%
- visual injury ([4]; 2,4-D at 2240 g ae/ha, 15DAT): 35%
- % Visual injury 7DAT ([4]; 2240 GM AE/HA): 15%
- % Visual injury 15DAT ([4]; 2240 GM AE/HA): 35%

Compound: C[C@@H](Oc1ccc(Cl)cc1Cl)C(=O)O [(R)-dichlorprop, R-2,4-dichlorophenoxypropionic acid]
- activity of AAD-12 (v2) on substrate (absorbance at 510 nm, FIG. 3) [1]: minimal activity
- % Injury 20-40% (number of individuals) [2, 9]: 0
- % Injury <20% (number of individuals) [2, 9]: 10
- % Injury >40% (number of individuals) [2, 9]: 0
- % Injury Ave [2, 9]: 0%
- % Injury 20-40% (number of individuals) [2, 10]: 0
- % Injury <20% (number of individuals) [2, 10]: 10
- % Injury >40% (number of individuals) [2, 10]: 0
- % Injury Ave [2, 10]: 0%
- % Injury 20-40% (number of individuals) [2, 11]: 0
- % Injury <20% (number of individuals) [2, 11]: 10
- % Injury >40% (number of individuals) [2, 11]: 0
- % Injury Ave [2, 11]: 0%
- % Injury 20-40% (number of individuals) [2, 12]: 0
- % Injury <20% (number of individuals) [2, 12]: 10
- % Injury >40% (number of individuals) [2, 12]: 0
- % Injury Ave [2, 12]: 0%

Compound: O=C(O)COc1nc(Cl)c(Cl)cc1Cl [triclopyr]
- visual injury ([3]; 2× rate of triclopyr (560 g ae/ha)): no injury
- % Visual injury 7DAT ([3]; 840 GM AE/HA): 0%
- % Visual injury 15DAT ([3]; 840 GM AE/HA): 0%
- visual injury ([4]; 2× rate of triclopyr (560 g ae/ha), 7DAT): 15%
- visual injury ([4]; 2× rate of triclopyr (560 g ae/ha), 15DAT): 25%
- % Visual injury 7DAT ([4]; 840 GM AE/HA): 30%
- % Visual injury 15DAT ([4]; 840 GM AE/HA): 25%
